In ChEMBL document CHEMBL1143311, “Structure-activity relationship and studies on the molecular mechanism of leishmanicidal N,C-coupled arylisoquinolinium salts” (J Med Chem, 2009):
pEC50, pIC50, pKi: −log10 of the molar value. Active and inactive are the calls of the source. The rule behind the calls is not given here.

Key:
[1] = Antiproliferative activity against mouse J774.1 cells after 48 hrs by alamar blue assay; type: cell-based
[2] = Selectivity index, ratio of IC50 for mouse J774.1 cells to IC50 for Leishmania major MHOM/IL/81/FE/BNI promastigotes; type: toxicity; conditions: for selectivity ratio: J774.1 cells, read-out: Ratio IC50
Leishmania major [3] = assay: Antileishmanial activity against Leishmania major MHOM/IL/81/FE/BNI promastigotes by alamar blue assay; type: functional, organism-based
Macrophage [4] = assay: Reduction of IL6 production in IFN-gamma-stimulated BALB/c mouse peritoneal macrophages infected with Leishmania major MHOM/IL/81/FE/BNI promastigotes at 3 uM after 24 hrs by sandwich ELISA; type: functional, cell-based
Cytochrome P450 3A4 = Cytochrome P450 3A4 (Homo sapiens, UniProt P08684); assay: Inhibition of human CYP3A4 at 100 uM by LC/ESI-MS analysis; type: ADME
Macrophage [5] = assay: Decrease in IL10 secretion in IFN-gamma-stimulated BALB/c mouse peritoneal macrophages infected with Leishmania major MHOM/IL/81/FE/BNI promastigotes at 3 uM after 24 hrs by sandwich ELISA; type: functional, cell-based
Cytochrome P450 2C9 = Cytochrome P450 2C9 (Homo sapiens, UniProt P11712); assay: Inhibition of human CYP2C9 at 100 uM by LC/ESI-MS analysis; type: ADME
Leishmania major [6] = assay: Antileishmanial activity against Leishmania major MHOM/IL/81/FE/BNI promastigotes infected in BALB/c mouse peritoneal macrophages assessed as decrease in infection rate after 48 hrs by fluorescence microscopy; type: functional, organism-based
Macrophage [7] = assay: Reduction of IL6 production in LPS-stimulated BALB/c mouse peritoneal macrophages infected with Leishmania major MHOM/IL/81/FE/BNI promastigotes at 3 uM after 24 hrs by sandwich ELISA; type: functional, cell-based
Macrophage [8] = assay: Decrease in IL10 secretion in LPS-stimulated BALB/c mouse peritoneal macrophages infected with Leishmania major MHOM/IL/81/FE/BNI promastigotes at 3 uM after 24 hrs by sandwich ELISA; type: functional, cell-based
Albumin = Albumin (Bos taurus, UniProt P02769); assay: Binding affinity to bovine serum albumin by ultrafiltration method; type: ADME; conditions: cattle, bovine serum albumin; read-out: PPB (converted)
[9] = Cytotoxicity against BALB/c mouse DC after 48 hrs by alamar blue assay
Macrophage [10] = assay: Reduction of TNFalpha production in IFN-gamma-stimulated BALB/c mouse peritoneal macrophages infected with Leishmania major MHOM/IL/81/FE/BNI promastigotes at 3 uM after 24 hrs by sandwich ELISA; type: functional, cell-based
[11] = Cytotoxicity against mouse NIH/3T3 after 48 hrs by alamar blue assay; type: cell-based; conditions: NIH3T3, 48 h
Cytochrome P450 2D6 [12] = biological target: T1, Cytochrome P450 2D6 (Homo sapiens, UniProt P10635); assay: Inhibition of human CYP2D6 at 1 to 100 uM by LC/ESI-MS analysis; type: ADME
[13] = Ratio of IC50 for BALB/c mouse peritoneal macrophages to EC50 for Leishmania major MHOM/IL/81/FE/BNI promastigotes
Leishmania major [14] = assay: Antileishmanial activity against Leishmania major MHOM/IL/81/FE/BNI promastigotes infected in BALB/c mouse peritoneal macrophages assessed as decrease in infection rate after 48 hrs by fluorescence microscopy in presence of interferon-gamma; type: functional, organism-based
Cytochrome P450 2D6 [15] = biological target: T1, Cytochrome P450 2D6; assay: Inhibition of human CYP2D6 by Lineweaver-Burke plot; type: ADME
Macrophage [16] = assay: Reduction of TNFalpha production in LPS-stimulated BALB/c mouse peritoneal macrophages infected with Leishmania major MHOM/IL/81/FE/BNI promastigotes at 3 uM after 24 hrs by sandwich ELISA; type: functional, cell-based
Cytochrome P450 2C19 = Cytochrome P450 2C19 (Homo sapiens, UniProt P33261); assay: Inhibition of human CYP2C19 at 100 uM by LC/ESI-MS analysis; type: ADME
[17] = Cytotoxicity against BALB/c mouse peritoneal macrophages after 48 hrs by alamar blue assay; type: cell-based; conditions: Macrophage
Macrophage [18] = assay: Increase in nitric oxide production in LPS-stimulated BALB/c mouse peritoneal macrophages infected with Leishmania major MHOM/IL/81/FE/BNI promastigotes at 3 uM after 48 hrs by […]; type: functional, cell-based
Cytochrome P450 2D6 [19] = biological target: T1, Cytochrome P450 2D6; assay: Inhibition of human CYP2D6 expressed in baculovirus-infected insect cell system; type: ADME

T1 sequence (P10635 whole entry): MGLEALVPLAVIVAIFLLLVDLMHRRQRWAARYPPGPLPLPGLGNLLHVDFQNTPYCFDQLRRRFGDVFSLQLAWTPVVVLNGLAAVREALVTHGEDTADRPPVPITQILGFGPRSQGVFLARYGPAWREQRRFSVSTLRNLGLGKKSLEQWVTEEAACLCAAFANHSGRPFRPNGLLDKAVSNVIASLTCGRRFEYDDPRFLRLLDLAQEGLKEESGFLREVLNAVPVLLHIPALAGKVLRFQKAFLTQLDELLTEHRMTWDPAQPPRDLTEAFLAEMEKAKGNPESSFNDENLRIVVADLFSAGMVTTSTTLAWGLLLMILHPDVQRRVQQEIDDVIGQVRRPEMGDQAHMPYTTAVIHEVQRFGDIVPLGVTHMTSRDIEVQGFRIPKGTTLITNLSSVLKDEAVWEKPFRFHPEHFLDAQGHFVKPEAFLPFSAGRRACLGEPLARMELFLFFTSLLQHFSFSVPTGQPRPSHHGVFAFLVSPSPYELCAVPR
Cytochrome P450 2C19, sequence (P33261 whole entry): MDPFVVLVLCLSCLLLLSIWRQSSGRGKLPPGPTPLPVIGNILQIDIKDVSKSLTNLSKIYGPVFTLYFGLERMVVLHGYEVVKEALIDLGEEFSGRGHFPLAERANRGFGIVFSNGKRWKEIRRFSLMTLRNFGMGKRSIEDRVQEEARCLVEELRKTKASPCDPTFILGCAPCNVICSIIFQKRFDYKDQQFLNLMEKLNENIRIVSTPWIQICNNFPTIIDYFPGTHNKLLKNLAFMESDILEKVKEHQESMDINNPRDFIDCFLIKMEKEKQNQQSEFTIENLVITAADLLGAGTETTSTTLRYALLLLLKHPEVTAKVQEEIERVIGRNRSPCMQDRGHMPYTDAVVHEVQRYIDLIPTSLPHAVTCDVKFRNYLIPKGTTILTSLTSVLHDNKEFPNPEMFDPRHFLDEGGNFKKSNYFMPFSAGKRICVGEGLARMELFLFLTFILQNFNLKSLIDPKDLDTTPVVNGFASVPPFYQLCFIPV
Albumin, sequence (P02769 whole entry): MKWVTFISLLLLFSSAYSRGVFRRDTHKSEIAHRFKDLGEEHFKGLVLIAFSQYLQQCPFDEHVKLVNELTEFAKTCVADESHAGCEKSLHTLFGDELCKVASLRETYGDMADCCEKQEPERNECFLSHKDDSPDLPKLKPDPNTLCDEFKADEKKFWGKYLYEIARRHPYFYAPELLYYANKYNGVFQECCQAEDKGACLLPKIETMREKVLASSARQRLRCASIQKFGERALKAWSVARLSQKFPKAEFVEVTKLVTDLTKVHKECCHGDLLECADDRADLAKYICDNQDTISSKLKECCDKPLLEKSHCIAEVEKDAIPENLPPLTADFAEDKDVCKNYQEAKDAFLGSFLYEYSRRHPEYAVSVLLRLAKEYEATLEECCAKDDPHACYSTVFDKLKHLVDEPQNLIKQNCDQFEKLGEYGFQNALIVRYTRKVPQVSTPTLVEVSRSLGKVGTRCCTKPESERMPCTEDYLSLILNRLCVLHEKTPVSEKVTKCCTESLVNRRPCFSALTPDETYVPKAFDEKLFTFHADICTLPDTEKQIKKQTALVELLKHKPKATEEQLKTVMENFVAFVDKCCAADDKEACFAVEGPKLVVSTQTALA
Cytochrome P450 2C9, sequence (P11712 whole entry): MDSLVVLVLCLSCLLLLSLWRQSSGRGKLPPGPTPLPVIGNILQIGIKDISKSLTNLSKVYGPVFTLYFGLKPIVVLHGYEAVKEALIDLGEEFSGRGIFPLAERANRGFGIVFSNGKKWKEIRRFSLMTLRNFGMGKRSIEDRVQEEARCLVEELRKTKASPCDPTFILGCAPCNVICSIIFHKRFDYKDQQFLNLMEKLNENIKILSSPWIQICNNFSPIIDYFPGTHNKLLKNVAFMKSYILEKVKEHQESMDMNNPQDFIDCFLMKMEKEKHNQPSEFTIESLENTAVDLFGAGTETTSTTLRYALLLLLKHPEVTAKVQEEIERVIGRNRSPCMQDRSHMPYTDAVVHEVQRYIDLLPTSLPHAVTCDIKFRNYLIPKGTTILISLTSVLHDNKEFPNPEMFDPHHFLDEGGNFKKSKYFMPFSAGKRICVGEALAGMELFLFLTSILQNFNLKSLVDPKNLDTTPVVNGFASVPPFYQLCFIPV
Cytochrome P450 3A4, sequence (P08684 whole entry): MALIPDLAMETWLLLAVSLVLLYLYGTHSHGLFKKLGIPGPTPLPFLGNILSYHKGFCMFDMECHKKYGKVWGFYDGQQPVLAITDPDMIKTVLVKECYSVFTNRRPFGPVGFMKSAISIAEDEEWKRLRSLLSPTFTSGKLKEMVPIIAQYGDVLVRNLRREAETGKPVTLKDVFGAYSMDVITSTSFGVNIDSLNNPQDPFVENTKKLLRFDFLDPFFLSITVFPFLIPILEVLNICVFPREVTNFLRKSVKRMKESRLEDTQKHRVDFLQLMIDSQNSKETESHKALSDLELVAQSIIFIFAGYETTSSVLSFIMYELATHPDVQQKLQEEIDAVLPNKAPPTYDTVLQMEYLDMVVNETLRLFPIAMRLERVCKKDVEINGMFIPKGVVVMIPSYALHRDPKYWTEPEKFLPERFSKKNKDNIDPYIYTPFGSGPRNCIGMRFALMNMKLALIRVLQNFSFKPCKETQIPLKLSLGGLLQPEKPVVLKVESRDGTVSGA

SMILES | pIC50 ([1]; Mus musculus, J774.1, 48 h) | selectivity ratio [2] | pIC50 (Leishmania major [3]; Leishmania major) | further results
COc1cc(OC)c2c(C)[n+](-c3ccc(Cl)cc3)c(C)cc2c1 | 5.52 | < 1 | 4.72 | 
COc1cc(OC)c2c(C)[n+](-c3ccc4cc5ccccc5cc4c3)c(C)cc2c1 | 6.64 | < 1 | 6.17 | 
COc1ccc(-[n+]2c(C)cc3cc(OC)cc(OC)c3c2C)cc1 | < 4.00 |  | < 4.00 | 
COc1cc2c(c(OC)c1)C(C)N(c1cccc3ccccc13)C(C)C2 (stereo not drawn) | < 4.00 |  | 4.18 | 
COc1cc(OC)c2c(C)[n+](-c3ccc(C)cc3)c(C)cc2c1.F[B-](F)(F)F | 4.84 | 5.55 | 5.58 | Activity (Macrophage [4]): Active; Activity (Cytochrome P450 3A4): Active; Activity (Macrophage [5]): inactive; Activity (Cytochrome P450 2C9): Active; pEC50 (Leishmania major [6]): 7.04; Activity (Macrophage [7]): Active; Activity (Macrophage [8]): inactive; fraction unbound (Albumin): 0.441; pIC50 [9]: 4.62; Activity (Macrophage [10]): Active; pIC50 [11]: 4.30; Activity (Cytochrome P450 2D6 [12]): Active; Ratio IC50/EC50 [13]: 138; Activity (Leishmania major [14]): Active; pKi (Cytochrome P450 2D6 [15]): 7.55; Activity (Macrophage [16]): Active; Activity (Cytochrome P450 2C19): Active; pIC50 [17]: 4.89; Activity (Macrophage [18]): inactive; pIC50 (Cytochrome P450 2D6 [19]): 7.25
COc1cc(OC)c2c(C)[n+](-c3cccc4cc5ccccc5cc34)c(C)cc2c1.F[B-](F)(F)F |  |  |  | pIC50 ([1]; j774.1): 5.53; Ratio IC50 [2]: < 1; pIC50 (Leishmania major [3]): 6.14
COc1cc(OC)c2c(C)[n+](-c3ccc(O)cc3)c(C)cc2c1 | < 4.00 |  | 4.80 | 
CCCCc1ccc(-[n+]2c(C)cc3cc(OC)cc(OC)c3c2C)cc1 | 5.35 | < 1 | 5.57 | 
CCCc1ccc(-[n+]2c(C)cc3cc(OC)cc(OC)c3c2C)cc1 | 5.27 | 1.14 | 5.79 | 
COc1cc(OC)c2c(C)[n+](-c3c(C)cc(C)cc3C)c(C)cc2c1 | 5.38 | 2.82 | 5.83 | 
COc1cc2c(c(OC)c1)C(C)N(c1ccc(OC)c3c(OC)cc(C)cc13)[C@@H](C)C2 (mixture of isomers) | < 4.00 |  | 4.19 | 
COc1cc2c(c(OC)c1)C(C)N(c1ccc(OC)c3c(OC)cc(C)cc13)[C@H](C)C2 (mixture of isomers) | < 4.00 |  | 4.18 | 
COc1cc(OC)c2c(C)[n+](-c3ccc(C)cc3C)c(C)cc2c1 | 5.39 | 1.24 | 5.48 | 
COc1cc(OC)c2c(C)[n+](-c3ccc(Br)cc3)c(C)cc2c1 | 5.53 | < 1 | 4.71 | 
COc1cc(OC)c2c(C)[n+](-c3cccc(C)c3C)c(C)cc2c1 | 4.98 | < 1 | 4.94 | 
COc1cc(OC)c2c(C)[n+](-c3ccc4ccccc4c3)c(C)cc2c1 | 5.09 | 2.41 | 5.47 | 
